Reference: PubChem BioAssay (NCI)
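These data come from cells grown in 96-well plates and exposed to compound for 48 hours at five concentrations. GI50 marks 50% less growth. TGI: concentration producing complete growth inhibition.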

What was measured:
Experiment in all cases: NCI-60 cell line screen, 48 h; in the data active = GI50 below about 0.43 µM; inactive = the rest
SW-620 colon = tested on: SW-620 colon
SF-539 CNS = tested on: SF-539 CNS
A498 renal = tested on: A498 renal
SK-OV-3 ovarian = tested on: SK-OV-3 ovarian
MCF7 breast = tested on: MCF7 breast
SF-295 CNS = tested on: SF-295 CNS
U251 CNS = tested on: U251 CNS
HL-60(TB) leukemia = tested on: HL-60(TB) leukemia
KM12 colon = tested on: KM12 colon
HOP-62 NSCLC = tested on: HOP-62 NSCLC
HS 578T breast = tested on: HS 578T breast
RXF 393 renal = tested on: RXF 393 renal
MDA-MB-435 = tested on: MDA-MB-435
SF-268 CNS = tested on: SF-268 CNS
CAKI-1 renal = tested on: CAKI-1 renal
TK-10 renal = tested on: TK-10 renal
UACC-62 melanoma = tested on: UACC-62 melanoma
HCC-2998 colon = tested on: HCC-2998 colon
DU-145 prostate = tested on: DU-145 prostate
SNB-19 CNS = tested on: SNB-19 CNS
LOX IMVI melanoma = tested on: LOX IMVI melanoma
NCI-H23 lung = tested on: NCI-H23 lung
IGROV1 ovarian = tested on: IGROV1 ovarian
UO-31 renal = tested on: UO-31 renal
A549 NSCLC = tested on: A549 NSCLC
K-562 leukemia = tested on: K-562 leukemia
NCI-H460 lung = tested on: NCI-H460 lung
OVCAR-8 ovarian = tested on: OVCAR-8 ovarian
SN12C renal = tested on: SN12C renal
SK-MEL-28 melanoma = tested on: SK-MEL-28 melanoma
UACC-257 melanoma = tested on: UACC-257 melanoma
EKVX NSCLC = tested on: EKVX NSCLC
NCI/ADR-RES ovarian = tested on: NCI/ADR-RES ovarian
NCI-H226 lung = tested on: NCI-H226 lung
CCRF-CEM leukemia = tested on: CCRF-CEM leukemia
NCI-H522 lung = tested on: NCI-H522 lung
OVCAR-4 ovarian = tested on: OVCAR-4 ovarian
HCT-15 colon = tested on: HCT-15 colon
SK-MEL-5 melanoma = tested on: SK-MEL-5 melanoma
HT29 colon = tested on: HT29 colon
COLO 205 colon = tested on: COLO 205 colon
HCT-116 colon = tested on: HCT-116 colon
RPMI-8226 leukemia = tested on: RPMI-8226 leukemia
786-0 renal = tested on: 786-0 renal
MALME-3M melanoma = tested on: MALME-3M melanoma
SNB-75 CNS = tested on: SNB-75 CNS
OVCAR-3 ovarian = tested on: OVCAR-3 ovarian
BT-549 breast = tested on: BT-549 breast
MOLT-4 leukemia = tested on: MOLT-4 leukemia
OVCAR-5 ovarian = tested on: OVCAR-5 ovarian
HOP-92 NSCLC = tested on: HOP-92 NSCLC
MDA-MB-231 breast = tested on: MDA-MB-231 breast
PC-3 prostate = tested on: PC-3 prostate
SR leukemia = tested on: SR leukemia
ACHN renal = tested on: ACHN renal
T-47D breast = tested on: T-47D breast
M14 melanoma = tested on: M14 melanoma
SK-MEL-2 melanoma = tested on: SK-MEL-2 melanoma

OC[C@H]1C[C@](O)(c2ccccc2Cl)[C@@H](c2ccccc2Cl)O1
41.3 µM: TGI (SR leukemia)
42.6 µM: TGI (UACC-257 melanoma)
74.6 µM: TGI (PC-3 prostate)
58.2 µM: TGI (RPMI-8226 leukemia)
37.9 µM: TGI (RXF 393 renal)
91.2 µM: TGI (ACHN renal)
51.4 µM: TGI (MALME-3M melanoma) | TGI (MOLT-4 leukemia)
68.5 µM: TGI (786-0 renal)
58.1 µM: TGI (A549 NSCLC)
99.2 µM: TGI (OVCAR-4 ovarian)
38.7 µM: TGI (HL-60(TB) leukemia)
41.2 µM: TGI (SN12C renal)
57.4 µM: TGI (UO-31 renal)
56.9 µM: TGI (K-562 leukemia)
inactive: GI50 (SW-620 colon) 30.1 µM | GI50 (SF-539 CNS) 22.4 µM | GI50 (A498 renal) 22.9 µM | GI50 (SK-OV-3 ovarian) 23.6 µM | GI50 (MCF7 breast) 27 µM | GI50 (SF-295 CNS) 27.1 µM | GI50 (U251 CNS) 28.5 µM | GI50 (HL-60(TB) leukemia) 16.5 µM | GI50 (KM12 colon) 25.4 µM | GI50 (HOP-62 NSCLC) 31.7 µM | GI50 (HS 578T breast) 16.3 µM | GI50 (RXF 393 renal) 18.7 µM | GI50 (MDA-MB-435) 16.3 µM | GI50 (SF-268 CNS) 24.2 µM | GI50 (CAKI-1 renal) 32 µM | GI50 (TK-10 renal) 20.9 µM | GI50 (UACC-62 melanoma) 16.5 µM | GI50 (HCC-2998 colon) 29.5 µM | GI50 (DU-145 prostate) 27.1 µM | GI50 (SNB-19 CNS) 31.7 µM | GI50 (LOX IMVI melanoma) 16.9 µM | GI50 (NCI-H23 lung) 25.9 µM | GI50 (IGROV1 ovarian) 10.8 µM | GI50 (UO-31 renal) 23 µM | GI50 (A549 NSCLC) 22.9 µM | GI50 (K-562 leukemia) 20 µM | GI50 (NCI-H460 lung) 19.8 µM | GI50 (OVCAR-8 ovarian) 26.4 µM | GI50 (SN12C renal) 20.8 µM | GI50 (SK-MEL-28 melanoma) 26.4 µM | GI50 (UACC-257 melanoma) 19 µM | GI50 (EKVX NSCLC) 19.2 µM | GI50 (NCI/ADR-RES ovarian) 29.4 µM | GI50 (NCI-H226 lung) 26 µM | GI50 (CCRF-CEM leukemia) 27.8 µM | GI50 (NCI-H522 lung) 13.4 µM | GI50 (OVCAR-4 ovarian) 24.3 µM | GI50 (HCT-15 colon) 28.4 µM | GI50 (SK-MEL-5 melanoma) 17.1 µM | GI50 (HT29 colon) 17.2 µM | GI50 (COLO 205 colon) 14.7 µM | GI50 (HCT-116 colon) 25.7 µM | GI50 (RPMI-8226 leukemia) 21.7 µM | GI50 (786-0 renal) 26.1 µM | GI50 (MALME-3M melanoma) 21.6 µM | GI50 (SNB-75 CNS) 20.9 µM | GI50 (OVCAR-3 ovarian) 19.5 µM | GI50 (BT-549 breast) 16.9 µM | GI50 (MOLT-4 leukemia) 17.1 µM | GI50 (OVCAR-5 ovarian) 23 µM | GI50 (HOP-92 NSCLC) 22.2 µM | GI50 (MDA-MB-231 breast) 18.6 µM | GI50 (PC-3 prostate) 24.2 µM | GI50 (SR leukemia) 16.9 µM | GI50 (ACHN renal) 27.4 µM
64.8 µM: TGI (KM12 colon)
64.7 µM: TGI (TK-10 renal)
62.6 µM: TGI (MCF7 breast)
52.2 µM: TGI (EKVX NSCLC)
86.6 µM: TGI (OVCAR-8 ovarian)
34.3 µM: TGI (LOX IMVI melanoma)
33.6 µM: TGI (UACC-62 melanoma)
79.4 µM: TGI (HCC-2998 colon)
33.3 µM: TGI (MDA-MB-435)
50.7 µM: TGI (SF-539 CNS)
49.6 µM: TGI (NCI-H460 lung)
68.6 µM: TGI (HCT-116 colon)
47.5 µM: TGI (OVCAR-3 ovarian)
74.3 µM: TGI (DU-145 prostate)
30.5 µM: TGI (IGROV1 ovarian)
37 µM: TGI (BT-549 breast)
79.6 µM: TGI (SK-MEL-28 melanoma)
> 100 µM: TGI (SW-620 colon) | TGI (U251 CNS) | TGI (HOP-62 NSCLC) | TGI (SF-268 CNS) | TGI (SNB-19 CNS) | TGI (NCI/ADR-RES ovarian) | TGI (CCRF-CEM leukemia) | TGI (HCT-15 colon)
70.8 µM: TGI (OVCAR-5 ovarian)
84.4 µM: TGI (SK-OV-3 ovarian)
31.6 µM: TGI (SK-MEL-5 melanoma)
74.2 µM: TGI (NCI-H23 lung)
34.6 µM: TGI (COLO 205 colon)
47.6 µM: TGI (MDA-MB-231 breast)
38.4 µM: TGI (HS 578T breast) | TGI (NCI-H522 lung)
59.2 µM: TGI (A498 renal)
86.1 µM: TGI (CAKI-1 renal)
76.3 µM: TGI (NCI-H226 lung)
79.9 µM: TGI (SNB-75 CNS)
94.6 µM: TGI (SF-295 CNS)
58.8 µM: TGI (HOP-92 NSCLC)
42.1 µM: TGI (HT29 colon)

C/C(=C\COP(=O)(O)OP(=O)(O)O)CC/C=C(\C)CNc1c(F)c(F)c(F)c(F)c1F
1.26 µM: TGI (CCRF-CEM leukemia)
> 100 µM: TGI (SW-620 colon) | TGI (SF-539 CNS) | TGI (SK-OV-3 ovarian) | TGI (MCF7 breast) | TGI (SF-295 CNS) | TGI (U251 CNS) | TGI (HL-60(TB) leukemia) | TGI (KM12 colon) | TGI (HOP-62 NSCLC) | TGI (HS 578T breast) | TGI (RXF 393 renal) | TGI (MDA-MB-435) | TGI (SF-268 CNS) | TGI (CAKI-1 renal) | TGI (TK-10 renal) | TGI (UACC-62 melanoma) | TGI (HCC-2998 colon) | TGI (DU-145 prostate) | TGI (SNB-19 CNS) | TGI (LOX IMVI melanoma) | TGI (NCI-H23 lung) | TGI (IGROV1 ovarian) | TGI (UO-31 renal) | TGI (A549 NSCLC) | TGI (T-47D breast) | TGI (K-562 leukemia) | TGI (NCI-H460 lung) | TGI (OVCAR-8 ovarian) | TGI (SN12C renal) | TGI (SK-MEL-28 melanoma) | TGI (UACC-257 melanoma) | TGI (M14 melanoma) | TGI (EKVX NSCLC) | TGI (NCI/ADR-RES ovarian) | TGI (NCI-H226 lung) | TGI (NCI-H522 lung) | TGI (OVCAR-4 ovarian) | TGI (HCT-15 colon) | TGI (SK-MEL-5 melanoma) | TGI (HT29 colon) | TGI (COLO 205 colon) | TGI (HCT-116 colon) | TGI (786-0 renal) | TGI (MALME-3M melanoma) | TGI (OVCAR-3 ovarian) | TGI (MOLT-4 leukemia) | TGI (OVCAR-5 ovarian) | TGI (HOP-92 NSCLC) | TGI (SK-MEL-2 melanoma) | TGI (MDA-MB-231 breast) | TGI (PC-3 prostate) | TGI (ACHN renal)
0.308 µM: TGI (SR leukemia)
> 31.6 µM: TGI (SNB-75 CNS)

COc1ccc2nc(-c3ccc(N)cc3)sc2c1
> 100 µM: TGI (SW-620 colon) | TGI (SF-539 CNS) | TGI (A498 renal) | TGI (SK-OV-3 ovarian) | TGI (MCF7 breast) | TGI (SF-295 CNS) | TGI (U251 CNS) | TGI (HL-60(TB) leukemia) | TGI (KM12 colon) | TGI (HOP-62 NSCLC) | TGI (HS 578T breast) | TGI (RXF 393 renal) | TGI (MDA-MB-435) | TGI (SF-268 CNS) | TGI (CAKI-1 renal) | TGI (TK-10 renal) | TGI (UACC-62 melanoma) | TGI (HCC-2998 colon) | TGI (SNB-19 CNS) | TGI (NCI-H23 lung) | TGI (IGROV1 ovarian) | TGI (UO-31 renal) | TGI (A549 NSCLC) | TGI (K-562 leukemia) | TGI (NCI-H460 lung) | TGI (OVCAR-8 ovarian) | TGI (SK-MEL-28 melanoma) | TGI (UACC-257 melanoma) | TGI (M14 melanoma) | TGI (EKVX NSCLC) | TGI (NCI/ADR-RES ovarian) | TGI (NCI-H226 lung) | TGI (CCRF-CEM leukemia) | TGI (NCI-H522 lung) | TGI (OVCAR-4 ovarian) | TGI (HCT-15 colon) | TGI (SK-MEL-5 melanoma) | TGI (HT29 colon) | TGI (COLO 205 colon) | TGI (HCT-116 colon) | TGI (786-0 renal) | TGI (MALME-3M melanoma) | TGI (SNB-75 CNS) | TGI (OVCAR-3 ovarian) | TGI (BT-549 breast) | TGI (MOLT-4 leukemia) | TGI (OVCAR-5 ovarian) | TGI (HOP-92 NSCLC) | TGI (SK-MEL-2 melanoma) | TGI (MDA-MB-231 breast) | TGI (PC-3 prostate) | TGI (SR leukemia) | TGI (ACHN renal)
